EC50 data for 14 molecules are collected here from ChEMBL document CHEMBL5335778, “Bench-to-bedside: Innovation of small molecule anti-SARS-CoV-2 drugs in China” (Eur J Med Chem, 2023).

For orientation: EC50 means the concentration needed to bring the measured effect to its halfway point.

For one test, the system named is SARS-CoV-2. Description: Antiviral activity against SARS-CoV-2 Omicron BA1 variant infected in human A549-ACE2 cells assessed as reduction in viral load measured upto 4 days by viral plaque assay. It is filed as functional, organism-based. The following applies: Severe acute respiratory syndrome coronavirus 2, A549-ACE2, 96 h.
Regarding `COc1ccc2cc1Oc1ccc(cc1)C[C@H]1c3c(cc4c(c3Oc3cc5c(cc3OC)CCN(C)[C@@H]5C2)OCO4)CCN1C` [CEPHARANTHINE], the EC50 turned out to be 100 nM.

The subject of the next test is SARS-CoV-2. Description: Antiviral activity against SARS-CoV-2 variant Omicron BA.2 infected in African green monkey Vero E6 cells assessed as reduction in virus-induced cytopathic effect. It is filed as functional, organism-based. The following applies: Severe acute respiratory syndrome coronavirus 2, Omicron BA.2, Vero C1008. Background: Protection from cytopathic effect is a common read-out in antiviral testing.
In the case of `CC(C)C[C@H](NC(=O)OCc1ccccc1)C(=O)N[C@@H](C[C@@H]1CCNC1=O)C(O)S(=O)(=O)O` (some centres undefined), the EC50 was 21.7 nM.

As for `C[C@H](NC(=O)[C@@H](c1cccnc1)N(C(=O)C(Cl)Cl)c1ccc(-c2ccccc2)cc1)c1ccccc1`, the EC50 amounted to 21.7 nM.

For the molecule `COc1cccc2[nH]c(C(=O)N[C@@H](CC(C)C)C(=O)N[C@@H](C[C@@H]3CCCNC3=O)C(=O)COC(=O)c3c(C(F)(F)F)cccc3C(F)(F)F)cc12`, the EC50 was 21.7 nM.

Consider `C[C@H](NC(=O)[C@@H](c1cccnc1)N(C(=O)c1ccco1)c1ccc(-c2ccccc2)cc1)c1ccccc1`, for which the EC50 is 21.7 nM.

As to `O=C1N(c2cncc3ccccc23)CNC12CC(c1ccccc1Cl)C2` (centres undefined), the half-maximal effective concentration (EC50) is 17.1 nM.

For the molecule `N#Cc1ccccc1-c1cc(-c2cc(Cl)cc(OCC3CC3)c2)c(=O)n(-c2cccnc2)c1`, the EC50 came out at 17.1 nM.

Take `CC(C)(C)OC(=O)Nc1cccn([C@@H](CC2CC2)C(=O)N[C@@H](C[C@@H]2CCNC2=O)C(=O)C(=O)NCc2ccccc2)c1=O`: the EC50 turned out to be 17.1 nM.

On to `C[C@H](OC(C)(C)C)[C@H](NC(=O)OCc1ccccc1)C(=O)N[C@@H](CC1CCCCC1)C(=O)N[C@H](C=O)C[C@@H]1CCNC1=O`, for which the EC50 was determined as 21.7 nM.

Consider `COc1cccc2[nH]c(C(=O)N[C@@H](CC(C)C)C(=O)N[C@@H](C[C@@H]3CCNC3=O)C(=O)CO)cc12` [PF-00835231], for which the EC50 stood at 21.7 nM.

On to `CC(C)C[C@H](NC(=O)c1cc2c(F)cccc2[nH]1)C(=O)NN(C[C@@H]1CCNC1=O)C(=O)[C@@H](F)Cl`, for which the EC50 worked out at 17.1 nM.

Turning to `CC(C)C[C@H](NC(=O)OCC1C[C@H]2CCC[C@@H](C1)C2)C(=O)N[C@H](C=O)C[C@@H]1CCNC1=O` (some centres undefined), the EC50 was 21.7 nM.

On to `CSc1ccc2c(c1)NC(=O)C(F)(F)C2=O`, for which the EC50 was found to be 17.1 nM.

The test system of the next test is SARS-CoV-2. Description: Antiviral activity against SARS-CoV-2 Omicron BA1 variant infected human A549-ACE2 cells assessed as inhibition of viral replication. The format is functional, organism-based. The following applies: Severe acute respiratory syndrome coronavirus 2, Omicron BA1, A549-ACE2.
As to `Br.[2H]c1cc([C@]2(C#N)O[C@H](COC(=O)C(C)C)[C@@H](OC(=O)C(C)C)[C@H]2OC(=O)C(C)C)n2ncnc(N)c12` [DEUREMIDEVIR HYDROBROMIDE], the EC50 was 300 nM.
